This is an account of results in paper PMC11188874, “HDAC6 Inhibition Releases HR23B to Activate Proteasomes, Expand the Tumor Immunopeptidome and Amplify T-cell Antimyeloma Activity” (Cancer Research Communications, 2024).

The test system of series [1] is proteasome ChT-like activity in RPMI-8226 cells. Put plainly: Cell-based high-throughput screen of proteasome ChT-like activity (LLVY-R110). The settings on record: 3 µmol/L, 21 hours, then LLVY-R110 18 hours. Set-up: species or system human.
For series [2], the system named is proteasome ChT-like activity in MMCLs. Put plainly: Proteasome ChT-like activity in cultured multiple myeloma cells (LLVY-R110). Particulars: for increase in proteasome activity: RPMI-8226 cells, 1 µmol/L, 72 hours (Fig. 1B, 1D); for proteasome activity (in words): MM cells, 1 uM, 72 h (Fig. S14C, S14D).
Series [3] is described as follows: Cell viability, XTT assay. The class given is cell-based. Particulars: human, RPMI-8226 cells, XTT (Fig. 1C, 1D), read-out: cell viability maintained. As for the experimental part:
Cell viability was determined using the XTT assay ([23]). Briefly, 50,000 cells were added to 96-well plates in a volume of 250 µL in RPMI media that lacked phenol red. Drugs were added at indicated concentrations and plates incubated under standard conditions for 72 hours. XTT sodium salt tetrazolium reagent (Gold Biotechnology, catalog no. X-200) was diluted in PBS (1 mg/mL) containing phenazine methosulfate (PMS, 7.5 µg/mL). Cells were incubated with the XTT+PMS reagent for 3 hours at 37°C and absorbance was measured at 450 nm using a Molecular Devices i3x Spectramax plate reader.
(In general: Tetrazolium dyes change colour on reduction, which living cells bring about.)

Series [4] has as its system E.G7-Ova cells. Put plainly: Quantitation of […]–MHC-I complex by flow cytometry. The class given is cell-based, mouse. Particulars: normalized to untreated (Fig. 2A). A general note: A flow cytometer gives signals particle by particle.
In series [5] the test system is E.G7-Ova cells. In words: Murine MHC-I immunopeptidome analysis by MS. The settings on record: 1 µmol/L, 72 hours. The class given is cell-based, mouse.
Series [6] deals with 27 cancer cell lines. Particulars: 1 µmol/L, 72 hours.
Series [7] concerns 27 cancer cell lines. Put plainly: Proteasome activity in a panel of cancer cell lines (LLVY-R110). Particulars: 1 µmol/L, 72 hours; for Number of Cell Lines: Both Increased: proteasome activity and class I presentation.
Another series has as its system RPMI-8226 cells. In words: Myeloma MHC-I immunopeptidome analysis by MS. The class given is cell-based, human. Particulars: 1 µmol/L.
Series [8] relates to E.G7-Ova cells. In words: B3Z T-cell hybridoma assay, annexin-V/propidium iodide. The settings on record: pretreatment 1 µmol/L 72 hours, E:T 2:1 (Fig. 2C). The class given is cell-based, mouse.
A further series deals with T1, HDAC10 (Homo sapiens, UniProt Q969S8).
T1 construct: purchased Reaction Biology (Malvern, PA)
T1 sequence (Q969S8 1-669): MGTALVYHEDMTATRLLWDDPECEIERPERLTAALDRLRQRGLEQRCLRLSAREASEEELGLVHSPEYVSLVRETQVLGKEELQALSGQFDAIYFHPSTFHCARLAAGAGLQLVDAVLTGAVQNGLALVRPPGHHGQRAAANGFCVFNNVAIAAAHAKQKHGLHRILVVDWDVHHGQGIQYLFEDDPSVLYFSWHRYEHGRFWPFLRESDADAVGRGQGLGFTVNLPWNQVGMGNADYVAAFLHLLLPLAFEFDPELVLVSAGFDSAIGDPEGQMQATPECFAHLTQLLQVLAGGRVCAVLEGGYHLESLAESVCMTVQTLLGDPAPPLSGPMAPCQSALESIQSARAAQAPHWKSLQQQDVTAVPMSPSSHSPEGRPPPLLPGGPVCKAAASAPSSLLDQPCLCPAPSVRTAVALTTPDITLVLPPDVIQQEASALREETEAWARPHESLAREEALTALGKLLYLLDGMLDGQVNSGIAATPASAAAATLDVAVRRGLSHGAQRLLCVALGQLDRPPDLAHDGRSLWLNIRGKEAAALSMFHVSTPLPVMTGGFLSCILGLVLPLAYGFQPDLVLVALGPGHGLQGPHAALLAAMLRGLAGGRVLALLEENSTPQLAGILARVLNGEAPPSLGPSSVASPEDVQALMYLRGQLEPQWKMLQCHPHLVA
In words: In vitro biochemical activity assay, HDAC10. The settings on record: 10-dose, 3-fold serial dilution; Data 1-3 are triplicates; substrate Ac-spermidine-AMC.

The next series relates to purified proteasomes. In words: Activity of proteasomes purified by conventional methods. The class given is biochemical.
Where [9] appears, read: RPMI-8226 multiple myeloma cells.

Molecules are shown by their SMILES. Several values for one entry are separate records, joined by “and”; a condition that tells them apart may be missing. Equal entries are not always repeated. Where two headings read alike, the source gives them in different places. Peptide text beside a SMILES is read from it. * marks the point of attachment. Cbz = O=C(OCc1ccccc1)*

Take `COc1ccc(C[C@H](NC(=O)[C@H](C)NC(=O)CN2CCOCC2)C(=O)N[C@@H](Cc2ccccc2)C(=O)C2(C)CO2)cc1` (stereo in doubt) [ONX-0914]: the “Fold-Decrease of proteasome ChT-like activity in the HTS” value (“Fold-Decrease” for short) in series [1] was 4 fold. The viability is a read-out of living cells in per cent, often relative to untreated cells. With `O.c1cnc2c(c1)ccc1cccnc12` [1,10-phenanthroline monohydrate], in series [2], the “increase in proteasome activity” value is on record as ≥ 30%. The viability at 16 h, 1 µmol/L in [3] was ≥ 75%. Further, the “Fold-Increase of proteasome ChT-like activity in the HTS” value (“Fold-Increase” below) in series [1] stood at 1.3 fold. Take `COC1=C(OC)C(=O)c2ccccc2C1=O` [2,3-Dimethoxy-1,4-naphthoquinone]: the “Fold-Increase” value in [1] was determined as 1.2 fold. As for `O=C(NO)c1cnc(NC2(c3ccccc3)CC2)nc1` [ACY-738], the “increase in presentation of the class I molecule–SIINFEKL complex” value in the series with E.G7-Ova cells [4] is “over 3 fold”. Also, the “increase in proteasome activity” value in series [2] is recorded as ≥ 30%. Further, the “peak area of SIINFEKL compared with untreated” value with E.G7-Ova cells [5] worked out at 1.5 fold. In the series on 27 cancer cell lines [6], the “Number of Cell Lines: Increased Class I Presentation” value is reported as 23 cell lines. In addition, in the series on 27 cancer cell lines [7], the “Number of Cell Lines: Increased Proteasome Activity” value is reported as 19 cell lines and the “Number of Cell Lines: Both Increased” value came to 18 cell lines. Moreover, the “number of peptides increased more than 20-fold” value in the series on RPMI-8226 cells (72 hours) is listed as “four”. For the same compound, the “number of peptides with ≥2-fold increase” value with RPMI-8226 cells (72 hours, 8,019 peptides detected) came to 118 peptides. In [3] (setting [9]), the viability at 16 h, 1 µmol/L was ≥ 75%. For the same compound, in the series on E.G7-Ova cells [8], the “number of CD8neg/annexin-V+/propidium iodide+ E.G7-Ova cells after coculture with B3Z cells” value is reported as “significantly increased”. Besides, the “Fold-Increase” value in series [1] was determined as 1.6 fold.

One may read the IC50 as the concentration needed to halve the response being measured. Higher therefore signals a need for much substance. Take `O=C(CCCCCCNC(=O)c1cnc(N(c2ccccc2)c2ccccc2)nc1)NO` [ACY-1215]: the “increase in presentation of the class I molecule–SIINFEKL complex” value with E.G7-Ova cells [4] is “over 3 fold”. The “increase in proteasome activity” value in series [2] was ≥ 30%. In addition, the “Number of Cell Lines: Increased Class I Presentation” value in the series on 27 cancer cell lines [6] was 19 cell lines. In the series with 27 cancer cell lines [7], the “Number of Cell Lines: Increased Proteasome Activity” value is 21 cell lines and the “Number of Cell Lines: Both Increased” value amounted to 18 cell lines. The 50% inhibitory concentration (IC50) at HDAC10 is 368 nM and 333 nM and 356 nM. Further, the viability at 16 h, 1 µmol/L in [3] (setting [9]) was ≥ 75%. In addition, in the series on E.G7-Ova cells [8], the “number of CD8neg/annexin-V+/propidium iodide+ E.G7-Ova cells after coculture with B3Z cells” value was “significantly increased”. Take `CC(=O)O[C@H]1CC[C@@]2(C)C(=CC[C@@H]3[C@@H]2CC[C@]2(C)C(c4cccnc4)=CC[C@@H]32)C1` [Abiraterone acetate]: the “direct effect on the activity of purified proteasomes” value (shortened to “direct effect on the activity”) in the series on purified proteasomes was “did not observe a direct effect”. The “Fold-Increase” value in [1] is given as 1.7 fold. Consider `COc1ccc(-c2ccc3ncc4c(c3c2)n(-c2ccc(N3CCNCC3)c(C(F)(F)F)c2)c(=O)n4C)cn1` [BGT226], for which the “Fold-Decrease” value in [1] came out at 25 fold. Regarding `C=C(C)[C@@H]1CC[C@]2(C(=O)O)CC[C@]3(C)[C@H](CC[C@@H]4[C@@]5(C)CC[C@H](O)C(C)(C)[C@@H]5CC[C@]43C)[C@@H]12` [Betulinic acid], the “Fold-Increase” value in [1] is reported as 1.3 fold. On to `CC(C)C[C@H](NC(=O)[C@@H](NC(=O)c1cccc(-c2ccccc2)n1)[C@@H](C)O)B(O)O` [CEP-18770], for which the “Fold-Decrease” value in series [1] was found to be 4 fold. Same read-out and setting: to `CNc1ccc2oc(C[C@H]3O[C@@]4(CC[C@H]3C)O[C@H]([C@H](C)C(=O)c3ccc[nH]3)[C@H](C)C[C@H]4C)nc2c1C(=O)O` [Calcimycin] belongs 5 fold; to `CC(C)C[C@H](NC(=O)[C@H](CCc1ccccc1)NC(=O)CN1CCOCC1)C(=O)N[C@@H](Cc1ccccc1)C(=O)N[C@@H](CC(C)C)C(=O)[C@@]1(C)CO1` [Carfilzomib], 54 fold. As to `CN(CCCCCCNc1ccnc2cc(Cl)ccc12)CCCCCCNc1ccnc2cc(Cl)ccc12` [DC-661], in the series on purified proteasomes, the “direct effect on the activity” value was “did not observe a direct effect”. Moreover, the “Fold-Increase” value in [1] came out at 1.6 fold.

Regarding `OCCN(CCO)c1nc(N2CCCCC2)c2nc(N(CCO)CCO)nc(N3CCCCC3)c2n1` [Dipyridamole], the “Fold-Increase” value in [1] was 2.0 fold. For the compound `COc1cccc2c1C(=O)c1c(O)c3c(c(O)c1C2=O)C[C@@](O)(C(=O)CO)C[C@@H]3O[C@H]1C[C@H](N)[C@@H](O)[C@H](C)O1` [Epirubicin], the “Fold-Decrease” value in series [1] came out at 4 fold. With `CCN(CCO)CCCC(C)Nc1ccnc2cc(Cl)ccc12` (stereo not drawn) [Hydroxychloroquine], the “Fold-Increase” value in [1] is reported as 1.2 fold.

With `CC(C)C[C@@H](C=O)NC(=O)[C@H](CC(C)C)NC(=O)[C@H](CC(C)C)NC(=O)OCc1ccccc1` [MG-132] (Cbz-Leu-Leu-Leu-aldehyde), the “Fold-Decrease” value in series [1] was 16 fold. Turning to `COC[C@H](NC(=O)c1cnc(C)s1)C(=O)N[C@@H](COC)C(=O)N[C@@H](Cc1ccccc1)C(=O)[C@@]1(C)CO1` [ONX-0912], in series [1], the “Fold-Decrease” value worked out at 4 fold. On to `C1=C/COCc2cc(ccc2OCCN2CCCC2)Nc2nccc(n2)-c2cccc(c2)COC/1` [Pacritinib], for which, in [1], the “Fold-Decrease” value is on record as 5 fold. For `Cn1cc(CNCC2CCN(c3ncc(C(=O)NO)cn3)CC2)c2ccccc21` [Quisinostat], the IC50 on HDAC10 came to 4.89 nM. Consider `CO[C@H]1C[C@@H]2CC[C@@H](C)[C@@](O)(O2)C(=O)C(=O)N2CCCC[C@H]2C(=O)O[C@H]([C@H](C)C[C@@H]2CC[C@@H](O)[C@H](OC)C2)CC(=O)[C@H](C)/C=C(\C)[C@@H](O)[C@@H](OC)C(=O)[C@H](C)C[C@H](C)/C=C/C=C/C=C/1C` [Rapamycin], for which, in series [1], the “Fold-Increase” value turned out to be 1.8 fold. Turning to `Nc1nc2ccc(OC(F)(F)F)cc2s1` [Riluzole], the “direct effect on the activity” value in the series with purified proteasomes was “did not observe a direct effect”.

For `COc1ccc(C2CNC(=O)C2)cc1OC1CCCC1` (stereo not drawn) [Rolipram], the “Fold-Increase” value in series [1] came to 1.3 fold. For `CC[C@@H](C(=O)[C@@H](C)[C@@H](O)[C@H](C)[C@@H]1O[C@@H]([C@@H](CC)C(=O)O)CC[C@@H]1C)[C@H]1O[C@]2(C=C[C@@H](O)[C@]3(CC[C@@](C)([C@H]4CC[C@](O)(CC)[C@H](C)O4)O3)O2)[C@H](C)C[C@@H]1C` [Salinomycin], the “direct effect on the activity” value in the series with purified proteasomes is “did not observe a direct effect”. Also, in [1], the “Fold-Increase” value came out at 2.0 fold. With `C=C[C@](C)(O)CC[C@@H]1[C@@]2(C)CCCC(C)(C)[C@@H]2CC[C@@]1(C)O` [Sclareol], the “Fold-Increase” value in series [1] was 1.4 fold.

With `COCCn1c2c([n+](Cc3cnccn3)c1C)C(=O)c1ccccc1C2=O` [YM155], the “Fold-Decrease” value in [1] is reported as 11 fold. Same read-out and setting: the figure for `CN(C)CCc1c[nH]c2ccc(C[C@H]3COC(=O)N3)cc12` [Zolmitriptan] is 4 fold.

As for `Cc1[nH]c2ccccc2c1CCNCc1ccc(/C=C/C(=O)NO)cc1` [panobinostat], the “proteasome activity (in words)” value in series [2] is recorded as “did not significantly increase”. Still for that read-out and setting: to `C/C=C1\NC(=O)[C@H]2CSSCC/C=C/[C@H](CC(=O)N[C@H](C(C)C)C(=O)N2)OC(=O)[C@H](C(C)C)NC1=O` [romidepsin] belongs “did not significantly increase”. Same read-out and setting: to `O=C(CCCCCCC(=O)Nc1ccccc1)NO` [vorinostat, suberoylanilide hydroxamic acid] belongs “did not significantly increase”.
